Results taken from ChEMBL document CHEMBL5055644, “Cysteine derivatives as acetyl lysine mimics to inhibit zinc-dependent histone deacetylases for treating cancer” (Eur J Med Chem, 2021).
Activity calls are given as the source filed them. The rule behind the calls is not given here.

Columns and labels:
Histone deacetylase 9 = Histone deacetylase 9 (Homo sapiens, UniProt Q9UKV0); test: Inhibition of human C-terminal His-tagged HDAC9 (604 to 1066 residues) expressed in baculovirus infected Sf9 insect cells using Boc-Lys(acetyl)-AMC as fluorogenic substrate measured after 1 hr by flourescence plate reader method
Sequence of Histone deacetylase 9 (Q9UKV0 whole entry, the tested form may be a part): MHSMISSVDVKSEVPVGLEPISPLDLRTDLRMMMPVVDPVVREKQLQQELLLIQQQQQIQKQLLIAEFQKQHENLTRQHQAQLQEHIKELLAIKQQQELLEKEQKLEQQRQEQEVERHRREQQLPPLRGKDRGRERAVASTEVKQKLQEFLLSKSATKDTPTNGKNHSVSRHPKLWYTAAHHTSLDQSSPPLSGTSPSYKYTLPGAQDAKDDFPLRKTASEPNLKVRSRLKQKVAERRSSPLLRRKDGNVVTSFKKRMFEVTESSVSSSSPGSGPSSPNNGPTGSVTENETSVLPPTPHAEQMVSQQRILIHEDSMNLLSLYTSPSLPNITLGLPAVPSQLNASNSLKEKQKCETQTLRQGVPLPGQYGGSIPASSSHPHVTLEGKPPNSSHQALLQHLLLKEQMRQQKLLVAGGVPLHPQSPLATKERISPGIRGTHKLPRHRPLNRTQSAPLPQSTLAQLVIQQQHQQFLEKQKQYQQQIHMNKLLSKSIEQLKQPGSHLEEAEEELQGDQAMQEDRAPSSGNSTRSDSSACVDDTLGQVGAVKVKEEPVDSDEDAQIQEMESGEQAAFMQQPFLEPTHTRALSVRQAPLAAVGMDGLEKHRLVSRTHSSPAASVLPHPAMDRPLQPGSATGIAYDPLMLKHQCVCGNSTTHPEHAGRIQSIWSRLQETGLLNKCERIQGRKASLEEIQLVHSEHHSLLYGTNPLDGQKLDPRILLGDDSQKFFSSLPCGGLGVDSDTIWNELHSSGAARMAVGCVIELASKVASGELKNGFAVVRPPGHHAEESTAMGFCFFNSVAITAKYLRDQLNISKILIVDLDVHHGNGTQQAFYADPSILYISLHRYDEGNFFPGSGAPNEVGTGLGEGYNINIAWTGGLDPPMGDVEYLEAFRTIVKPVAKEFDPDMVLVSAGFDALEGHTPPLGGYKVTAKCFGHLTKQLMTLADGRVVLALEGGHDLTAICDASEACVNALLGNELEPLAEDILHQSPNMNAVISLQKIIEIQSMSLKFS

[1] = target: Histone deacetylase 3/Nuclear receptor corepressor 2 (HDAC3/NCoR2) (Homo sapiens, UniProt O15379); test: Inhibition of C-terminal His-tagged recombinant human HDAC3 (1 to 428 residues)/N-terminal GST-tagged recombinant human NCoR2 (395 to 489 residues) co-expressed in baculovirus infected Sf9 cells using Boc-Lys(acetyl)-AMC as fluorogenic substrate measured after 1 hr by flourescence plate reader method
Sequence of Histone deacetylase 3/Nuclear receptor corepressor 2 (HDAC3/NCoR2) (O15379 whole entry, the tested form may be a part): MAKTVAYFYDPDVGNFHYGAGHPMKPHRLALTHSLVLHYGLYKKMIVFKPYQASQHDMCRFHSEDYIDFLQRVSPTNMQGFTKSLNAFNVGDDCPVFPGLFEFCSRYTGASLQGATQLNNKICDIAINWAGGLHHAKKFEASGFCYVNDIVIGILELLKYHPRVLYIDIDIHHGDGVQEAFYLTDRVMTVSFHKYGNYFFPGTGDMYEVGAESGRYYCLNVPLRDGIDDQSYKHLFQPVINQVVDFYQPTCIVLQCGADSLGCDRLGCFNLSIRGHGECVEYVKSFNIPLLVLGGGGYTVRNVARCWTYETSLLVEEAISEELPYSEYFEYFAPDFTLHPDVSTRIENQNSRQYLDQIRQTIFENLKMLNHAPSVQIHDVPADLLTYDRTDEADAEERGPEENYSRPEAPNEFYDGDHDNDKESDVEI
Sequence of Histone deacetylase 3/Nuclear receptor corepressor 2 (HDAC3/NCoR2) (Q9Y618 whole entry, further chain, the tested form may be a part): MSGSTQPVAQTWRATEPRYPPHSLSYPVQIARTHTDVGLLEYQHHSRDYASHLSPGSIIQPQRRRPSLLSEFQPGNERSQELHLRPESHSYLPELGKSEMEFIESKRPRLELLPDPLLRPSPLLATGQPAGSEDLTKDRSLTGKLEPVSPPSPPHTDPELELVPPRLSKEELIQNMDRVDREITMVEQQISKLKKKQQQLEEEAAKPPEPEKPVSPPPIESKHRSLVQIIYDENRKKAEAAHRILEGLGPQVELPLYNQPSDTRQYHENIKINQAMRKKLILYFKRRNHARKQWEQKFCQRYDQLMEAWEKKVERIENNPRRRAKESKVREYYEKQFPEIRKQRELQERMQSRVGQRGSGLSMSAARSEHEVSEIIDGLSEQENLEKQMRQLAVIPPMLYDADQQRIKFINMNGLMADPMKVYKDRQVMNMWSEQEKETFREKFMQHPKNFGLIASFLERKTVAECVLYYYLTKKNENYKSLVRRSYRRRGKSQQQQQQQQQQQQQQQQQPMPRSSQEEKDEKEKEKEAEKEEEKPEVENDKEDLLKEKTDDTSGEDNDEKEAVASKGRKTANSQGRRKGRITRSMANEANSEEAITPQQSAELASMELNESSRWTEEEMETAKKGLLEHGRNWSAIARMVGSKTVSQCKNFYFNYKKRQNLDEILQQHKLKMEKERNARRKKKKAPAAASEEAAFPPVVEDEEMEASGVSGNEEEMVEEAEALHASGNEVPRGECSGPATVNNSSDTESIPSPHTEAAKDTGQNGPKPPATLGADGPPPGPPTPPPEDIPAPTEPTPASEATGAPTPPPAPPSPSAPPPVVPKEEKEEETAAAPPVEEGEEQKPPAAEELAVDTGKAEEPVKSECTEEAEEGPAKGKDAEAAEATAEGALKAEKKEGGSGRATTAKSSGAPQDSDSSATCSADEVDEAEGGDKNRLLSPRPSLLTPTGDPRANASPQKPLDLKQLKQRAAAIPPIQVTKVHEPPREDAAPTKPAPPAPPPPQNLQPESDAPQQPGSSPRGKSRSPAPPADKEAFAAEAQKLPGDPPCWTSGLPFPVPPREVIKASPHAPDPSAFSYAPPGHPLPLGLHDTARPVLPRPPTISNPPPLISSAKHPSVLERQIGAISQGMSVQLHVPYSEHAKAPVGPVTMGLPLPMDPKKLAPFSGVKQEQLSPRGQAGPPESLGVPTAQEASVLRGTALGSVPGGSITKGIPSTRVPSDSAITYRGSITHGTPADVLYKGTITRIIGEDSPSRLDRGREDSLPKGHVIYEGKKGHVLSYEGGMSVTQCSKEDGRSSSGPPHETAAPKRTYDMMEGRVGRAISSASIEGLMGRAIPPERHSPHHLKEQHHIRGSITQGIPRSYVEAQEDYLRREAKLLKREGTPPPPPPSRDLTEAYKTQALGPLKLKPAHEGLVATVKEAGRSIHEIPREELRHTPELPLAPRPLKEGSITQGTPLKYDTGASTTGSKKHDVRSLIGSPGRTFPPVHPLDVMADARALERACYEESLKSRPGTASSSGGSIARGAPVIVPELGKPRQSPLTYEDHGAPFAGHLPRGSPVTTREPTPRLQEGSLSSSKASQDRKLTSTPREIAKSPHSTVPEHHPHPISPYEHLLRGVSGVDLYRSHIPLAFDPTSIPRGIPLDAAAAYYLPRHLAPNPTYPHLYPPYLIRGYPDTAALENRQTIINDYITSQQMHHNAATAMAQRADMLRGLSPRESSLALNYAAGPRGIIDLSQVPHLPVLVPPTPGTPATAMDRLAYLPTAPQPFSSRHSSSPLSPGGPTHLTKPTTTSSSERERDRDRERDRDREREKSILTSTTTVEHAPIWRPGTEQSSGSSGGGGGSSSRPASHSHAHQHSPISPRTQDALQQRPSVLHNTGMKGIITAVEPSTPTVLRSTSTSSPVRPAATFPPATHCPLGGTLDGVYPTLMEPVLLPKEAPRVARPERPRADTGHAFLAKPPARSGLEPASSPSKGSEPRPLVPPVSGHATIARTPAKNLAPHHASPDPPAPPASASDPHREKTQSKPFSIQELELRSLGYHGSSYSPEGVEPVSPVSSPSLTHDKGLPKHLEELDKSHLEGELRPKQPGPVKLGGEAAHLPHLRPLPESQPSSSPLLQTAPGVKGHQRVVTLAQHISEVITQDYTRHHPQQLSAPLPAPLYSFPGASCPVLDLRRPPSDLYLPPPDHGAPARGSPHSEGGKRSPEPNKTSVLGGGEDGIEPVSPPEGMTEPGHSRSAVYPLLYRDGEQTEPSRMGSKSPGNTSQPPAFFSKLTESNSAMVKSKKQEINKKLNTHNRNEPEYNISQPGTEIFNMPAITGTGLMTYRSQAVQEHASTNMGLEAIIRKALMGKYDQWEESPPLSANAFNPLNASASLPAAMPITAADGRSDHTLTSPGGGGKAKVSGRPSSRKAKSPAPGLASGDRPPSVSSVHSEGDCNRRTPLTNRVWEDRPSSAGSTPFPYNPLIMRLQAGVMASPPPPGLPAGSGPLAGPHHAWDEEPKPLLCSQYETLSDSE

Histone deacetylase 2 = Histone deacetylase 2 (Homo sapiens, UniProt Q92769); test: Inhibition of full length human HDAC2 using Boc-Lys(acetyl)-AMC as fluorogenic substrate measured after 1 hr by flourescence plate reader method
Sequence of Histone deacetylase 2 (Q92769 whole entry): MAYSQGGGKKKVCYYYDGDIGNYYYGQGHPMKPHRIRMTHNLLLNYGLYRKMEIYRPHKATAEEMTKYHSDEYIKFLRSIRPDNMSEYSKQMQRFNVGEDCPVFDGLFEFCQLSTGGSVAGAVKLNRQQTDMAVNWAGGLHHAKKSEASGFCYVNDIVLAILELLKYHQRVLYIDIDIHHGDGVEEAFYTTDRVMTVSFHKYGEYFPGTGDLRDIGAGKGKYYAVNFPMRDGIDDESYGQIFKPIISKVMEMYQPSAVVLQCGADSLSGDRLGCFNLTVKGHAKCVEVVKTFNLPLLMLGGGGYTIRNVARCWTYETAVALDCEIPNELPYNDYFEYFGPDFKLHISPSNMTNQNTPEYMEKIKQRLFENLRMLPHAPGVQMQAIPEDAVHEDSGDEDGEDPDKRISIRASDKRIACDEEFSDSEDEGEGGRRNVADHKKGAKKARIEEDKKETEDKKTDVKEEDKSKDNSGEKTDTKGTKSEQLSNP

Histone deacetylase 1 = Histone deacetylase 1 (Homo sapiens, UniProt Q13547); test: Inhibition of HDAC1 (unknown origin) using Boc-Lys(acetyl)-AMC as fluorogenic substrate measured after 1 hr by flourescence plate reader method
Sequence of Histone deacetylase 1 (Q13547 whole entry): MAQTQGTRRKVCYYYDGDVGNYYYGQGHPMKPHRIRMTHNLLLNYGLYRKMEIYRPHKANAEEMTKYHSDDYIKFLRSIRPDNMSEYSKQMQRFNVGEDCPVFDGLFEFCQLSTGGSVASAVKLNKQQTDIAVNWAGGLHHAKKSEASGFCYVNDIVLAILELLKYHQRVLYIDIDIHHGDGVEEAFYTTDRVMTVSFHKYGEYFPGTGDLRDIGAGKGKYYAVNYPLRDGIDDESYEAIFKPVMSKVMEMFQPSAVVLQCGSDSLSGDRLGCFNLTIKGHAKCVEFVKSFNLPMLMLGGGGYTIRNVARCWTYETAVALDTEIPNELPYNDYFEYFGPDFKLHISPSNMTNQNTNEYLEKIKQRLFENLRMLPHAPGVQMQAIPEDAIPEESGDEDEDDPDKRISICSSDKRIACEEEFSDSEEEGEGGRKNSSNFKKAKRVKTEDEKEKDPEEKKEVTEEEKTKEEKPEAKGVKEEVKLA

[2] = target: T1, Protein deacetylase HDAC6 (Homo sapiens) (UniProt Q9UBN7); test: Inhibition of HDAC6 in human MCF7 cells assessed as increase in alpha tubulin acetylation at 10 uM measured after 8 hrs by Western blot analysis; format: cell-based
T1 sequence (whole entry): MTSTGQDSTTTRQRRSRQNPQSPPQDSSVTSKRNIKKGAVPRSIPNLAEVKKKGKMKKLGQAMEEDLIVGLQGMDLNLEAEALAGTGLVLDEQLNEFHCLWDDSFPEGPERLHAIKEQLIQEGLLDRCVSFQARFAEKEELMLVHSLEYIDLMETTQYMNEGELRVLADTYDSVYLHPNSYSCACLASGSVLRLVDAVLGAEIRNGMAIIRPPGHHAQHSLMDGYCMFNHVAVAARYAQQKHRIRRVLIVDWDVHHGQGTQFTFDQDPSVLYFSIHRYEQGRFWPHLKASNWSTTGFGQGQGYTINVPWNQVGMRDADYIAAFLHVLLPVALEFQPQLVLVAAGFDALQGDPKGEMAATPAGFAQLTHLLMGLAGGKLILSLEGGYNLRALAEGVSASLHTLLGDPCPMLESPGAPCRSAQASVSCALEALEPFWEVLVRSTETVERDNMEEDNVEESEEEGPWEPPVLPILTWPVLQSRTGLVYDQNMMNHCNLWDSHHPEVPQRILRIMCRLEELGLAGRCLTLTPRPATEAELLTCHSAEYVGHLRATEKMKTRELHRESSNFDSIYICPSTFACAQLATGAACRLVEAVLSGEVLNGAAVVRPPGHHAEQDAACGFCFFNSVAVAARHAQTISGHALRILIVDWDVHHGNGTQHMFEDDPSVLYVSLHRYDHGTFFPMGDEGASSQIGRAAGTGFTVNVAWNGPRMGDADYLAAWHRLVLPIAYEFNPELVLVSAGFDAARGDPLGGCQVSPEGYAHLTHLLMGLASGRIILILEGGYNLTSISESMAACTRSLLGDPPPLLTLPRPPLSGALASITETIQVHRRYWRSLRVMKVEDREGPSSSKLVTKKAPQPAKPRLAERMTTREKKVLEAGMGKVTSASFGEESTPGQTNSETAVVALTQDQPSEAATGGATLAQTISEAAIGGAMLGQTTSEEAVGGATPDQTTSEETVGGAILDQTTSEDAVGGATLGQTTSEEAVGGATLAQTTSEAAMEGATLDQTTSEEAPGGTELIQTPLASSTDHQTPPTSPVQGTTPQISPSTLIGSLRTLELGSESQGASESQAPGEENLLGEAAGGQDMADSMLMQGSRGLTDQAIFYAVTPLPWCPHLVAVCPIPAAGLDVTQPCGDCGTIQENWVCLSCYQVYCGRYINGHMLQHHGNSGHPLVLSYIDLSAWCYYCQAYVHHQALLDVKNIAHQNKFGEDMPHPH

[3] = target: Histone deacetylase (Homo sapiens) (UniProt Q13547+O15379+Q9UBN7+Q92769+Q9UQL6+Q8WUI4+Q9BY41+Q96DB2+P56524+Q9UKV0+Q969S8); test: Inhibition of HDAC in human HeLa nuclear extract at 1 uM using Boc-Lys(acetyl)-AMC as fluorogenic substrate measured after 1 hr by flourescence plate reader method relative to control; format: subcellular; details: Nucleus
MCF7 = test: cells; format: functional; details: Homo sapiens, time 48 hrs
Description: Antiproliferative activity against human MCF-7 cells assessed as inhibition of cell proliferation incubated for 48 hrs by CCK8 assay

[4] = target: T2, Class 1 histone deacetylase (Homo sapiens) (UniProt Q13547+O15379+Q92769+Q9BY41); test: Inhibition of class 1 HDAC in human MCF7 cells assessed as increase in histone H3 acetylation at 10 uM measured after 8 hrs by Western blot analysis; format: cell-based
T2 sequence (O15379 whole entry, looked up, one chain of several): as the sequence (O15379 whole entry, the tested form may be a part) above
T2 sequence (Q13547 whole entry, looked up, one chain of several): as the sequence (Q13547 whole entry) above
T2 sequence (Q92769 whole entry, looked up, one chain of several): as the sequence (Q92769 whole entry) above

[5] = target: T2, Class 1 histone deacetylase (Homo sapiens); test: Inhibition of class 1 HDAC in human MCF7 cells assessed as increase in histone H4 acetylation at 10 uM measured after 8 hrs by Western blot analysis; format: cell-based
Histone deacetylase 8 = target: T3, Histone deacetylase 8 (Homo sapiens, UniProt Q9BY41); test: Inhibition of full length human C-terminal His-tagged HDAC8 expressed in baculovirus infected Sf9 insect cells using Boc-Lys(acetyl)-AMC as fluorogenic substrate measured after 1 hr by flourescence plate reader method
T3 sequence (Q9BY41 whole entry): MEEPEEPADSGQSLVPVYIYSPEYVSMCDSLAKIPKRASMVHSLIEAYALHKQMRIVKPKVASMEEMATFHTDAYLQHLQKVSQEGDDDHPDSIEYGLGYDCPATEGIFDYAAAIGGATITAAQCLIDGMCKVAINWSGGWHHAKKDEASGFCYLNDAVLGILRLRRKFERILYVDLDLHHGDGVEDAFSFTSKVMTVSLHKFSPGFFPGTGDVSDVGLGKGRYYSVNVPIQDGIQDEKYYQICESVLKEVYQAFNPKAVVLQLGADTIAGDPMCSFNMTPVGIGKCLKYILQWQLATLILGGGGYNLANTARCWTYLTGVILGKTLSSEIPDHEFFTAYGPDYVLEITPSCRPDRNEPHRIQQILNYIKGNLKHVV

[6] = target: T4, Protein deacetylase HDAC6 (Homo sapiens, UniProt Q9UBN7); test: Inhibition of HDAC6 (unknown origin) using Boc-Lys(acetyl)-AMC as fluorogenic substrate measured after 1 hr by flourescence plate reader method
T4 sequence (Q9UBN7 whole entry): T1 sequence (whole entry)

[7] = target: T2, Class 1 histone deacetylase (Homo sapiens); test: Inhibition of class 1 HDAC in human K562 cells assessed as increase in histone H3 acetylation at 10 uM measured after 8 hrs by Western blot analysis; format: cell-based

IC50 (Histone deacetylase 9)	IC50 [1]	IC50 (Histone deacetylase 2)	IC50 (Histone deacetylase 1)	inhibition [2]	inhibition [3]	GI50 (MCF7)	inhibition [4]	inhibition [5]	IC50 (Histone deacetylase 8)	IC50 [6]	inhibition [7]	Compound
> 200 nM	69.3 nM	> 200 nM	150 nM	Active	83%	4.9 µM	Active	Active	> 200 nM	19.6 nM	Active	O=C(CCCSC[C@H](NC(=O)OCc1ccccc1)C(=O)Nc1cccc2ccccc12)NO
> 200 nM	108 nM	> 200 nM	172 nM	Active	84%	4.7 µM	Active	Active	> 200 nM	20.6 nM	Active	O=C(CCCSC[C@H](NC(=O)OCc1ccccc1)C(=O)Nc1ccccc1)NO

Compound	IC50 (Histone deacetylase 9)	IC50 [1]	IC50 (Histone deacetylase 2)	IC50 (Histone deacetylase 1)	inhibition [2]	inhibition [3]	GI50 (MCF7)	inhibition [4]	inhibition [5]	IC50 (Histone deacetylase 8)	IC50 [6]	inhibition [7]
O=C(CCCSC[C@H](NC(=O)c1ccccc1)C(=O)Nc1ccccc1)NO	> 200 nM	126 nM	> 200 nM	198 nM	Active	80%	3.7 µM	Active	Active	> 200 nM	13.7 nM	Active
